From patent US10864273B2, “Thiobase compounds for photodynamic therapy” (CASE WESTERN RESERVE UNIVERSITY, priority 2015, dated 2020)
“Also recorded” adds a separate entry of the source.

What was measured:
[1] = Singlet oxygen quantum yield by phosphorescence at 1270 nm, thiouracil series; format: physicochemical
Procedure: Solutions of 4tUra, 2,4dtUra, and the singlet oxygen standard (phenalenone; ΦΔ=0.98) were prepared in acetonitrile, each with an absorbance of 0.3 at 355 nm in a 1×1 cm quartz cuvette. The solutions were purged with oxygen for 30 min, followed by the determination of quantum yields from back-toback measurements of the singlet oxygen phosphorescence intensity at 1270 nm. The O2-saturated solutions were excited at 355 nm (Spectra Physics GCR-150-30: 7 ns pulse width) and the phosphorescence at 1270 nm was detected with a NIR sensitive photomultiplier tube (H10330A-45, Hamamatsu).
The singlet oxygen (^1O2) quantum yields of 4tUra and 2,4dtUra were measured by monitoring the characteristic phosphorescence of ^1O2 at 1270 nm with nanosecond time resolution.

[2] = Estimated photosensitization depth into tissue from molar absorptivity cutoff and penetration depth of light
Source text: FIG. 13 illustrates a plot showing molar absorptivity spectra of 4tUra and 2,4dtUra overlaid with the function of the wavelength-dependent penetration depth of light into unpigmented tissue. The ε cutoff is defined by the molar absorptivity of 4tUra at 365 nm; the excitation wavelength typically used in its photosensitization applications.
Importantly, many of the current applications employing 4tUra and other UVA photosensitizers (e.g. psoralen derivatives) use radiation at 365 nm as the excitation source. The use of longer UVA wavelengths reduces direct excitation of other biomolecules, thereby increasing photosensitization efficiency and minimizing unwanted side reactions. However, the requirement of using relatively high concentrations of the sensitizer and/or long irradiation times are two major drawbacks in the current use of 4tUra in photocrosslinking studies as well as in PUVA (psoralen+UVA) photochemotherapies. […] More importantly, 2,4dtUra enables the use of lower-energy excitation wavelengths, as long as 395 nm (see FIG. 13), considering a molar absorptivity cutoff criterion equal to that currently used for 4tUra (see ESI† for a more thorough justification of this cutoff criterion). In other words, the use of 2,4dtUra enables excitation at 395 nm while maintaining the same absorption efficiency and photoreactivity as that of 4tUra at 365 nm. […]

[3] = Femtosecond to microsecond transient absorption spectroscopy of the thiouracil series (intersystem crossing, triplet yield, triplet decay, triplet-triplet extinction)
Source text: Briefly, 800 nm, 100 fs fundamental pulses were generated with a Ti-Sapphire regenerative amplifier laser system (Libra-HE, Coherent, Inc.: 4.0 W, 1 kHz). The fundamental beam was used to produce pump wavelengths of 320, 335, and 350 nm via an optical parametric amplifier (TOPAS, Quantronix/Light Conversion). Unwanted wavelengths were removed from the pump beam using a reflective wavelength filter and a Glan-Taylor polarizer. A fraction of the remaining fundamental beam was focused into a continuously moving CaF2 plate (2 mm thick) to generate broadband white light probe pulses (320-700 nm). The intensity of the excitation beam was attenuated to 1 mJ per pulse at the sample position. The polarization of the pump beam was randomized before being focused into the sample to overlap with the white light continuum probe at a 3:1 beam diameter ratio. Pump-probe experiments were collected using a Helios spectrometer (Ultrafast Systems, LLC) and a home-made data acquisition software (LabView, National Instruments, Inc.).
Solutions of the 2tUra, 4tUra, and 2,4dtUra derivatives were prepared in aqueous phosphate-buffered saline at pH 7.4. […] Solutions were investigated in 2 mm optical path length quartz cells and the irradiated volume was continuously refreshed by stirring with a Teflon-coated magnetic stir bar. Contributions to the transient data from any putative photoproduct formation were prevented by replacing the solution with fresh stock solution every 5 scans, or before 6% sample degradation (as monitored by a decrease in the steady-state absorbance of the lowest-energy absorption band). The UVA excitation wavelength used was varied depending on the absorption spectrum of the specific thiouracil derivative investigated. For 2tUra, an excitation wavelength of 320 nm was used, whereas 2,4dtUra was excited at 335 and 350 nm, and 4tUra was excited at all three of these UVA wavelengths.
Decay of the triplet state of 4tUra and 2,4dtUra to the ground state was monitored using the same excitation and detection setups but probing with an electronically triggered broadband white light source (Eos, Ultrafast Systems, LLC) that has been conveniently integrated into the Helios spectrometer. This probe source has a spectral window from B375 to 800 nm, a time resolution of about 400 ps, and a temporal window of up to 120 ms. […] Data were collected with the solutions under a constant nitrogen flow, and exciting at 350 nm with 3 mJ per pulse for 10 min, corresponding to less than 5% degradation.
For each data set, between 50 and 100 traces were selected across the entire range of probe wavelengths and globally analyzed in Igor Pro 6.32A (WaveMetrics, Inc.). […] 83 The uncertainties reported for the triplet population lifetimes are twice the standard deviation from the average fitting of at least three independent datasets (i.e., recorded on three different days). Triplet-triplet absorption spectra were extracted from the global fitting analysis.

[4] = Steady-state molar absorptivity spectra, thiouracil series; format: physicochemical; settings: 380 to 400 nm; based on molar absorptivity spectra
Procedure: Steady-state absorption spectra were measured using a Cary 100 Bio spectrometer. All absorption spectra were background corrected by subtracting the absorption of the neat solvent. Molar absorptivity coefficients were determined from the absorption spectra of serial dilutions of stock solutions with known concentrations.
An important property in the characterization of the photosensitizing potential of the thiouracil series is the determination of their ground-state molar absorptivity spectra. […] The maximum of the lowest-energy absorption band is shifted considerably further to the red (60 nm, 6734 cm^−1) upon sulfur substitution of the oxygen atom at the C4 position compared to when the substitution is made at the C2 position. […] In fact, based on the molar absorptivity spectra, the absorption efficiency of 2,4dtUra at nearvisible wavelengths (380 to 400 nm) is about 27-fold greater than that of 4tUra (see ESI† for details). The ability of these thiouracil derivatives to absorb longer wavelengths of light than uracil facilitates their selective excitation over the canonical DNA and RNA nucleobases. This photophysical property is essential for their prospective use in in vitro and in vivo photosensitizing applications.

[5] = test system: adenosine 5′-monophosphate (5′-AMP); test: Photoreactivity with adenosine 5′-monophosphate upon 365 nm irradiation in N2-saturated buffer
Procedure: Aqueous phosphate-buffered saline solutions, pH 7.4, containing either 4tUra or 2,4dtUra were prepared with and without 5′-AMP and loaded into 1×1 cm septum-top quartz cuvettes. The concentrations of the thiouracil derivatives and 5′-AMP were […], respectively. These concentrations were chosen in order to favor the bimolecular photoreaction between the thiouracil derivative and 50-AMP, while simultaneously maintaining the absorbance of the solutions within the linear dynamic range limit of the UV-visible spectrophotometer used. All solutions were purged with ultrapure nitrogen for 30 min and kept under constant nitrogen flow throughout the irradiation period. An optical parametric amplifier (TOPAS, Quantronix/Light Conversion) pumped by our Libra laser system (described above) was used for monochromatic (±1 nm) irradiation of the samples. […] Absorbance changes in the thiouracil solutions, with and without 5′-AMP, were monitored periodically using UV-visible spectroscopy (Cary 100 Bio) during irradiation at 365 nm for up to 90 min and while stored in the dark for up to three and a half days.
In order to scrutinize the light-induced reactivity of these sensitizers toward biomolecules, aqueous phosphate-buffered saline solutions of either 4tUra or 2,4dtUra were prepared in the presence of the RNA monomer adenosine 5′-monophosphate (5′-AMP) at a 1:5 molar ratio. […] The experimental conditions were chosen in order to facilitate the extraction of relative photoreaction rates from the changes in the steady-state absorption spectra with irradiation time. […]

[6] = cited from earlier work

- triplet-triplet extinction coefficient ([3]; at 600 nm, singlet depletion method): 2500 ± 600 M⁻¹ cm⁻¹
- absorption efficiency at near-visible wavelengths relative to 4tUra [4]: about 27 fold
SMILES: Sc1ccnc(S)n1 [2,4dtUra, 2,4-dithiouracil]
- ΦΔ singlet oxygen quantum yield ([1]; O2-saturated acetonitrile, 355 nm excitation, phenalenone standard): 0.49±0.02
- 1O2 yield relative to uracil ([1]; excited to lowest-energy absorption band): 3.3 fold
- 1O2 yield ([1]; following UVA excitation): ca. 50%
- longest excitation wavelength at molar absorptivity cutoff equal to that of 4tUra at 365 nm [2]: ≤ 395 nm
- increase in rate of intersystem crossing going from 2tUra [3]: 1.6 fold
- τISC intersystem crossing lifetime ([3]; aqueous phosphate-buffered saline solution, pH 7.4): 220±40 fs
- κT triplet-state decay rate ([3]; aqueous phosphate-buffered saline solution, pH 7.4, 24 mM solutions, nitrogen-purged, 350 nm excitation): 4.3 ± 0.9 10^6 s^−1
- intersystem crossing lifetime ([3]; aqueous phosphate-buffered saline, pH 5.4): 210±50 fs
- photoreaction rate with 5′-AMP relative to 4tUra ([5]; 365 nm, same concentrations of reactants): approximately three times faster; also recorded: threefold greater; also recorded: threefold higher
- photoreaction rate ([5]; with 5′-AMP, 1:5 molar ratio (24 and 120 mM), 365 nm irradiation, N2-saturated aqueous buffer pH 7.4): (1.2±0.2)×10^−9 M s^−1
- pKa [6]: 7.4
